Results reported in the NIST ThermoML archive (doi:10.1021/acs.jced.5b00931).

CCCC[N+]1(C)CCCCC1.O=S(=O)([O-])C(F)(F)F [1-butyl-1-methylpiperidinium trifluoromethanesulfonate]
101.33 kPa, Liquid
Conditions	mass density, Vibrating tube method [kg/m3]	viscosity, Falling or rolling sphere viscometry [mPa·s]
333.15 K	1216.8	107
338.15 K	1213.3	84.6
343.15 K	1209.8	67.8
348.15 K	1206.4	55.2
353.15 K	1202.9	45.6
358.15 K	1199.5	38
363.13 K	1196.1	–
363.15 K	–	32

CCCC[N+]1(C)CCCC1.O=S(=O)([O-])C(F)(F)F [1-butyl-1-methylpyrrolidinium trifluoromethanesulfonate]
101.33 kPa, Liquid
Conditions	mass density, Vibrating tube method [kg/m3]	viscosity, Falling or rolling sphere viscometry [mPa·s]
293.15 K	1255.7	217
298.15 K	1252	164
303.15 K	1248.3	128
308.15 K	1244.7	101
313.15 K	1241	80.7
318.15 K	1237.4	65.7
323.15 K	1233.8	54.3
328.15 K	1230.2	42.4
333.15 K	1226.7	35.7
338.15 K	1223.1	30.4
343.15 K	1219.6	26.1
348.15 K	1216.1	22.7
353.15 K	1212.6	19.8
358.15 K	1209	17.4
363.13 K	1205.5	–
363.15 K	–	15.5

CCCC[n+]1cccc(C)c1.O=S(=O)([O-])C(F)(F)F [1-butyl-3-methylpyridinium trifluoromethanesulfonate]
101.33 kPa, Liquid
Conditions	mass density, Vibrating tube method [kg/m3]	viscosity, Falling or rolling sphere viscometry [mPa·s]
293.15 K	1279	165
298.15 K	1275.2	126
303.15 K	1271.4	95.7
308.15 K	1267.6	75.9
313.15 K	1263.8	60.2
318.15 K	1260	45.8
323.15 K	1256.2	37.6
328.15 K	1252.5	31.4
333.15 K	1248.7	26.3
338.15 K	1245	22.6
343.15 K	1241.2	19.4
348.15 K	1237.5	16.9
353.15 K	1233.8	14.9
358.15 K	1230.1	13.1
363.13 K	1226.5	–
363.15 K	–	11.6
